Assay results from article PMC2967600 (Peptides, 2010).
One block for each substance: values may come before it. Ends that are not written are not given here.

Key:
rat MC5R = settings: CHO cells; cited from earlier work
hMC5R = hMC5R (Homo sapiens, UniProt P33032); settings: Bednarek et al.; cited from earlier work
mMC3R = mMC3R (Mus musculus, UniProt P33033); assay: cAMP based functional bioassay; type: cell-based
melanocortin receptors = settings: cited from earlier work
mMC5R = mMC5R (Mus musculus, UniProt P41149); assay: cAMP based functional bioassay; type: cell-based; settings: mMC5R EC50, agonist; mean ± SEM; >100000 = no activity at up to 100μM
Sequence of mMC5R (P41149 whole entry): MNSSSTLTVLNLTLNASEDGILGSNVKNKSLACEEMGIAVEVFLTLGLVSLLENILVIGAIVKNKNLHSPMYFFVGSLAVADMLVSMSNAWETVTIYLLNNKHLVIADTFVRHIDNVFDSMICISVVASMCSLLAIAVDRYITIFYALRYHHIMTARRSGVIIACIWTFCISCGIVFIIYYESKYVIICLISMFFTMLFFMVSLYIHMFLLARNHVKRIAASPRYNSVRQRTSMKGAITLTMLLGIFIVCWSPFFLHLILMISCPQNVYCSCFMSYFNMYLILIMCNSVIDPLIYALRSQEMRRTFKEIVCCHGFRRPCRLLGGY

Sequence of mMC3R (P33033 whole entry): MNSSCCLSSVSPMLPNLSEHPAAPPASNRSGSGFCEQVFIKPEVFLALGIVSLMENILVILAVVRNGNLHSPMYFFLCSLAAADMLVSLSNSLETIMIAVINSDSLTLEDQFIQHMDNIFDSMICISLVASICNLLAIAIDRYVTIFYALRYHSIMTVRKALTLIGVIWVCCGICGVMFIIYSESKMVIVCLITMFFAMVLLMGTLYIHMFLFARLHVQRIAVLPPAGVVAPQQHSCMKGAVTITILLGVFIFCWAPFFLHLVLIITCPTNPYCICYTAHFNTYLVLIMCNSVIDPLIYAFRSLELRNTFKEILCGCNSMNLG
Sequence of hMC5R (P33032 whole entry): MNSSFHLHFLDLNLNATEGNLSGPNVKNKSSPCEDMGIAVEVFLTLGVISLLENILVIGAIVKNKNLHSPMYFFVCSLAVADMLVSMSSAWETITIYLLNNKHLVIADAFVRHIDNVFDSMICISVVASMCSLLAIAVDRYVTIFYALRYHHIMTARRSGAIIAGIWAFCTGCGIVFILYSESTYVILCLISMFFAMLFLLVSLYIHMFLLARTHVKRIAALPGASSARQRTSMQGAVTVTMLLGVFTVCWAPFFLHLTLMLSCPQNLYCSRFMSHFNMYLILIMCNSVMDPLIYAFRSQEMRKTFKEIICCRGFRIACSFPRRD

Substance: HS024
functional activity at the rat MC5R (rat MC5R): full agonist
functional activity at the hMC5R (hMC5R): full hMC5R agonist

selectivity for the mMC3R versus the mMC4R (mMC3R; from agonist EC50 values): 18 fold
Substance: YVMGHFRWDR [Peptide 6]

Substance: Ac-His-Phe-Arg-Trp-NH2
stimulation of melanocortin receptors (melanocortin receptors): able to fully stimulate

EC50 (mMC3R; mMC3R EC50, agonist, mean ± SEM, >100000 = no activity at up to 100μM): 100 nM
EC50 (mMC5R): 365 nM
Substance: MGHFRWDRF [Peptide 27]
